This is an account of results in patent publication US20180007910A1, “FUNGICIDAL COMPOSITION EFFECTIVE AGAINST ALTERNARIA ON CITRUS” (ARYSTA LIFESCIENCE BENELUX SPRL, priority 2015, published 2018).

In series [1] the test system is Alternaria alternata. In words: Field trial 2014, control of Alternaria alternata on mandarins (Alzira, Valencia, Spain). The format is in vivo. The settings on record: Syllit 544 g/l suspension concentrate; spring, autumn and combined treatments; OECD criteria; FIG. 9. As to the method: (§1) A field trial was conducted for the control of Alternaria alternata on mandarins in Alzira, Valencia, Spain. The product used was Syllit 544 g/l suspension concentrate. Mandarins were harvested and classified using the OECD criteria (international quality standard for citrus established by the Organisation for Economic Co-operation and Development in 2010).

Series [2] deals with mandarins. Put plainly: Phytotoxicity observation in field trial 2014. The class given is in vivo. The settings on record: field trial 2014 on mandarins, Syllit 544 g/l suspension concentrate. As for the experimental part:
as §1

Take `CC(=O)O.CCCCCCCCCCCCNC(=N)N` [Dodine, 1-dodecylguanidiniumethanoate]: the “percentage of fruits in the category Extra compared to control group” value in series [1] is “significantly higher percentage of fruit”. Further, the symptoms of phytotoxicity entry in series [2] was “No symptoms of phytotoxicity were observed”.
